Columns and labels:
[1] = system: NCI-H358 cells; experiment: Cellular phospho-ERK assay; assay type: cell-based; conditions: Homo sapiens, NCI-H358, 2 h, NCI-H358 cells; 2 hour incubation; ratio of p-Erk vs total Erk; read-out: IC50
Method in brief: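 15,000 cells/well seeded overnight, then dose-response compound treatment for 2 h at 37 °C in RPMI medium. Lysed and read by AlphaLISA SureFire Ultra multiplex; p-ERK/total ERK ratio as readout, IC50 from 4-parameter logistic fit.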

[2] = biological target: T1, Biotinylated KRAS G12C protein (Homo sapiens, UniProt P01116, C118S/C51S/C80L/G12C); experiment: SOS-catalyzed nucleotide exchange assay; assay type: biochemical; conditions: apparent potency; preincubation time of 60 minutes prior to addition of SOS
T1 construct: 183 amino acids; biotin on K10
T1 sequence (P01116 with tags, fused parts or gaps isoform P01116-2 G12C/C51S/C80L/C118S): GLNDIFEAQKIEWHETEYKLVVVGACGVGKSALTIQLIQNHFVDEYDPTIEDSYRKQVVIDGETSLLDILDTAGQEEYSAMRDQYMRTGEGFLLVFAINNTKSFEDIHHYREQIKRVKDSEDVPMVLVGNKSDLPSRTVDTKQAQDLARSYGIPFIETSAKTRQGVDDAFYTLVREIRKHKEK

| SMILES | IC50 [1] [nM] | IC50 [2] [nM] |
| --- | --- | --- |
| C=CC(=O)N1CCN(c2cc(C(=O)N[C@H](C)CN3CC(O)(C(F)(F)F)C3)nc3c2CCN(c2cccc4cccc(C)c24)C3)C[C@@H]1CC#N [Compound 69, 4-((S)-4-acryloyl-3-(cyanomethyl)piperazin-1-yl)-N-((R)-1-(3-hydroxy-3-(trifluoromethyl)azetidin-1-yl)propan-2-yl)-7-(8-methylnaphthalen-1-yl)-5,6,7,8-tetrahydro-1,7-naphthyridine-2-carboxamide] | 2000 | 22 |
| C=CC(=O)N1CCN(c2cc(C(=O)N[C@H]3CC[C@@H](NC)CC3)nc3c2CCN(c2cccc4cccc(C)c24)C3)C[C@@H]1CC#N [Compound 96, 4-((S)-4-acryloyl-3-(cyanomethyl)piperazin-1-yl)-N-(cis-4-(methylamino)cyclohexyl)-7-(8-methylnaphthalen-1-yl)-5,6,7,8-tetrahydro-1,7-naphthyridine-2-carboxamide] | 5470 | 56 |
| C=CC(=O)N1CCN(c2cc(C(=O)N[C@H](C)CN3CC(C)(O)C3)nc3c2CCN(c2cccc4cccc(C)c24)C3)C[C@@H]1CC#N [Compound 70, 4-((S)-4-acryloyl-3-(cyanomethyl)piperazin-1-yl)-N-((R)-1-(3-hydroxy-3-methylazetidin-1-yl)propan-2-yl)-7-(8-methylnaphthalen-1-yl)-5,6,7,8-tetrahydro-1,7-naphthyridine-2-carboxamide] | 57 | 2.2 |

Continued by falling IC50 [1], values first:

| IC50 [1] [nM] | IC50 [2] [nM] | SMILES |
| --- | --- | --- |
| 7860 | 12 | C=CC(=O)N1CCN(c2cc(C(=O)NCC3(N)CCCCCC3)nc3c2CCN(c2cccc4cccc(C)c24)C3)C[C@@H]1CC#N [Compound 91, (S)-4-(4-acryloyl-3-(cyanomethyl)piperazin-1-yl)-N-((1-aminocycloheptyl)methyl)-7-(8-methylnaphthalen-1-yl)-5,6,7,8-tetrahydro-1,7-naphthyridine-2-carboxamide] |
| 7200 | 20 | C=CC(=O)N1CCN(c2cc(C(=O)NCCC3(N)CCCCC3)nc3c2CCN(c2cccc4cccc(C)c24)C3)C[C@@H]1CC#N [Compound 92, (S)-4-(4-acryloyl-3-(cyanomethyl)piperazin-1-yl)-N-(2-(1-aminocyclohexyl)ethyl)-7-(8-methylnaphthalen-1-yl)-5,6,7,8-tetrahydro-1,7-naphthyridine-2-carboxamide] |
| 1250 | 8.3 | C=C(F)C(=O)N1CCN(c2cc(C(=O)N[C@H](C)CN(C)C)nc3c2CCN(c2cccc4cccc(C)c24)C3)C[C@@H]1CC#N [Compound 78, 4-((S)-3-(cyanomethyl)-4-(2-fluoroacryloyl)piperazin-1-yl)-N-((R)-1-(dimethylamino)propan-2-yl)-7-(8-methylnaphthalen-1-yl)-5,6,7,8-tetrahydro-1,7-naphthyridine-2-carboxamide] |
| 809 | 5.4 | C=CC(=O)N1CCN(c2cc(C(=O)NC3(C)CCCNC3)nc3c2CCN(c2cccc4cccc(C)c24)C3)C[C@@H]1CC#N (mixture of isomers) [Compound 102, 4-((S)-4-acryloyl-3-(cyanomethyl)piperazin-1-yl)-7-(8-methylnaphthalen-1-yl)-N-((R)-3-methylpiperidin-3-yl)-5,6,7,8-tetrahydro-1,7-naphthyridine-2-carboxamide, as a mixture with 4-((S)-4-acryloyl-3-(cyanomethyl)piperazin-1-yl)-7-(8-methylnaphthalen-1-yl)-N-((S)-3-methylpiperidin-3-yl)-5,6,7,8-tetrahydro-1,7-naphthyridine-2-carboxamide] |

Source: US20220402916A1, “SMALL MOLECULE INHIBITORS OF KRAS G12C MUTANT” (Merck Sharp & Dohme Corp., priority 2019, published 2022)
